According to US20040167103A1, “Haloacetamide and azide substituted compounds and methods of use thereof” (priority 2003, published 2004):

Experiments:
LNCaP cells [1] = experiment: TUNEL assay (apoptosis, DNA fragmentation); format: cell-based, human; conditions: LNCaP cells exposed for 24 hours, relative to 0.1% DMSO vehicle control
Procedure: METHODS: DNA fragmentation of apoptotic cells was monitored by the TUNEL assay as described by the supplier. Briefly, LNCaP cells were plated at 2×10^5 cells/well in 2-well chamber slides and incubated at 37° C., 5% CO2 for 24 h to allow the cells sufficient time to attach and be in log phase growth at the start of the experiment. The media was aspirated and replaced with media containing vehicle control (DMSO) or drug dissolved in DMSO. The total volume of DMSO/drug added to each well was equal to 0.1% of the media volume in each well. LNCaP cells were treated with vehicle control, and increasing concentrations of Compound 1 and Compound 2 (0.1, 1.0, and 10.0 μM) for 24-48 h. Two wells were treated with the same concentration of the drugs or DMSO for each treatment condition listed above. The media was collected along with the trypsinized cells and centrifuged at 150×g for 4 min. […] Green and red fluorescence emissions were observed microscopically using 520 nm and >620 nm filters, respectively.
RESULTS: The TUNEL assay is used to determine whether cells are undergoing apoptosis (cell death mechanism) as a result of drug treatment. […] TUNEL assay incorporates a dye that labels the 3′ ends of such DNA fragments which are then visualized by fluorescence. […]

LNCaP cells [2] = experiment: Cell growth inhibition (sulforhodamine B assay), LNCaP; format: cell-based, human; conditions: for Sensitivity of LNCaP cells compared with other cell lines: LNCaP the only androgen receptor expressing cell line tested; for IC50: Homo sapiens, LNCaP, SRB assay
Procedure: (§1) Prostate cancer cell lines were obtained from ATCC. All cells were grown in RPMI-1640 medium containing 2 mM L-glutamine supplemented with 10% fetal bovine serum (FBS) and maintained in a 5% CO2/95% air humidified atmosphere at 37° C.
Cells were plated on 96-well plates and incubated with drug-containing culture medium (200 μL/well) for 4 (DU 145, PC-3, PPC-1, and TSU) or 6 (LNCaP) days. Medium was replaced with freshly prepared batches every other day during the incubation. At the end of drug treatment, an aliquot of 50 μL of cold (4° C.) trichloroacetic acid (TCA, 50%) was gently layered on the top of growth medium in each well to make a final TCA concentration of 10%. The mixtures were incubated at 4° C. for 1 hour, and then washed 5 times with tap water to remove TCA, growth medium, low-molecular-weight metabolites, and serum proteins. The plates were air dried overnight. Next, fixed cells were stained with 50 μL of SRB solution (0.4%, wt/vol) for 10 minutes. After staining, SRB solution was decanted, and plates were quickly rinsed 5 times with 1% acetic acid to remove unbound dye and air dried overnight. The cellular protein-bound SRB was then dissolved with 200 μL unbuffered Tris base (10 mM, pH 10.5) for 30 minutes on a rocking platform shaker, and absorbance at 540 nm was measured by a plate reader.
Percentage of cell survival was calculated by absorbance at 540 nm in testing wells divided by absorbance in negative control wells (medium without the test compound). Percentages of cell survival versus drug concentrations were plotted and the concentration of drug that inhibited cell growth by 50% (IC50) was determined by nonlinear regression using WinNonlin (Pharsight Corporation, Mountain View, Calif.).
METHODS: LNCaP, DU145, PC-3, TSU, and PPC-1 cells were cultured in 96-well plates and treated with increasing concentrations of the compound of interest for 4 days. Cell survival was determined by the sulforhodamine B assay and was plotted as a percentage of control (drug-free wells) versus drug concentration. The concentration of drug that inhibited cell growth by 50% (IC50) was determined by non-linear regression. Known anticancer drugs were used as cytotoxic positive controls.

LNCaP cells [3] = experiment: Growth curve (trypan blue cell count, 120 h), LNCaP compared with other lines; format: cell-based, human
Procedure: METHODS: Cells were plated at 5-10×10^4 cells/well in five 6-well plates and incubated at 37° C., 5% CO2 for 24 h to allow the cells sufficient time to attach and be in log phase growth at the start of the experiment. The media was aspirated from four of the plates and replaced with media containing vehicle control (DMSO) or drug dissolved in DMSO. The total volume of DMSO/drug added to each well was equal to 0.1% of the media volume in each well. LNCaP, PC-3, MCF-7, and CV-1 cells were treated with vehicle control, and increasing concentrations of Compound 1 and Compound 2 (0.01, 0.05, 0.1, 0.5, 1.0, 5.0, and 10.0 μM). Three wells were treated with the same concentration of the drugs or DMSO for each treatment condition listed above. The cells from the remaining 6-well plate were collected and counted to determine plating efficiency. The 6-well plates containing DMSO/drug were incubated for 120 h at 37° C., 5% CO2. After 120 h, the media from each well was collected along with trypsinized cells and centrifuged at 150×g for 4 min. The cells were resuspended in 1 mL of media, from which 90 μl was taken and combined with 10 μl trypan blue for counting on a hemacytometer.

[4] = system: prostate cancer cell lines DU 145, PC-3, TSU, PPC-1 and LNCaP; experiment: Cell growth inhibition (sulforhodamine B assay), five prostate cancer cell lines together; format: cell-based, human; conditions: statement in words
Procedure: as §1
(§2) Cells were plated on 96-well plates and incubated with drug-containing culture medium (200 μL/well) for 4 (DU 145, PC-3, PPC-1, and TSU) or 6 (LNCaP) days. Medium was replaced with freshly prepared batches every other day during the incubation. At the end of drug treatment, an aliquot of 50 μL of cold (4° C.) trichloroacetic acid (TCA, 50%) was gently layered on the top of growth medium in each well to make a final TCA concentration of 10%. […] The cellular protein-bound SRB was then dissolved with 200 μL unbuffered Tris base (10 mM, pH 10.5) for 30 minutes on a rocking platform shaker, and absorbance at 540 nm was measured by a plate reader.
(§3) Percentage of cell survival was calculated by absorbance at 540 nm in testing wells divided by absorbance in negative control wells (medium without the test compound). […]
(§4) METHODS: LNCaP, DU145, PC-3, TSU, and PPC-1 cells were cultured in 96-well plates and treated with increasing concentrations of the compound of interest for 4 days. Cell survival was determined by the sulforhodamine B assay and was plotted as a percentage of control (drug-free wells) versus drug concentration. […]

[5] = target: T1, cytosolic AR prepared from rat ventral prostates (Rattus norvegicus, UniProt P15207); experiment: Androgen receptor radioligand competitive binding assay (3H-mibolerone)
T1 construct: cytosolic AR prepared from rat ventral prostates; from tissue; host or cells: rat ventral prostate cytosol
T1 sequence (P15207 1-902): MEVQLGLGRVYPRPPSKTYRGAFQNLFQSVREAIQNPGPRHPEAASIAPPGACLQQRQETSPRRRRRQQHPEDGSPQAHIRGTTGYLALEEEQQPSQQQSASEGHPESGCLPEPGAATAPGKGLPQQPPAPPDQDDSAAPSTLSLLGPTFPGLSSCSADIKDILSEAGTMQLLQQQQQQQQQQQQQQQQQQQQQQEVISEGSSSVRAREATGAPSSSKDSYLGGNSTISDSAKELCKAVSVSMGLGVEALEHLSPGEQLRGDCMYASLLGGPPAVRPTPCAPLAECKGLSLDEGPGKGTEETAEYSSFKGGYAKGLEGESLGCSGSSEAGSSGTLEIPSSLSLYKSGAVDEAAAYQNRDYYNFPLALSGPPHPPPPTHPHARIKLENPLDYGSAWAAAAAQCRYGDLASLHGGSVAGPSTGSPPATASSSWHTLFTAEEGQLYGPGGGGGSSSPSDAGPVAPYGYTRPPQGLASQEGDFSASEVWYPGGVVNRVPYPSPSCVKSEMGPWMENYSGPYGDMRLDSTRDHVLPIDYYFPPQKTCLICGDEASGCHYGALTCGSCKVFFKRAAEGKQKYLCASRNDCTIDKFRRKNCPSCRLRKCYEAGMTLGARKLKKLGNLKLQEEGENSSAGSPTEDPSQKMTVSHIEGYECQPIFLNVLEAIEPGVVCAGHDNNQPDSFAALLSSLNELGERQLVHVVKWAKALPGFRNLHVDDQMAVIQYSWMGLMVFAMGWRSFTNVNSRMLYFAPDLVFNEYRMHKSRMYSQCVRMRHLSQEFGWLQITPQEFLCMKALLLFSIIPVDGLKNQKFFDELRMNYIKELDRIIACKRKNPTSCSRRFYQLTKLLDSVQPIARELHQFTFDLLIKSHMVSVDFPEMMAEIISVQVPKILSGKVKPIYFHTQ
Procedure: The AR binding affinity of test compounds was determined by a radioligand competitive binding assay with cytosolic AR prepared from rat ventral prostates. […] After incubation, the protein-bound radioactivity was separated from free radioactivity by HAP precipitation. The bound radioactivity was then extracted from HAP by ethanol, and counted in a Beckman LS6800 liquid scintillation counter (Beckman Instruments Inc., Palo Alto, Calif.). Nonspecific binding was determined separately by including 1,000 nM of unlabeled MIB in the incubate. The binding data was fitted to the equation B=B0*[1-C/(IC50+C)] using WinNonlin.

PC-3 cells = experiment: Cell growth inhibition (sulforhodamine B assay), PC-3; format: cell-based; conditions: Homo sapiens, PC-3, 96 h, SRB assay, 4 days treatment
Procedure: as §1, §2, §3, §4

TSU cells = experiment: Cell growth inhibition (sulforhodamine B assay), TSU; format: cell-based; conditions: Homo sapiens, 96 h, SRB assay, 4 days treatment
Procedure: as §1, §2, §3, §4

PPC-1 cells = experiment: Cell growth inhibition (sulforhodamine B assay), PPC-1; format: cell-based; conditions: Homo sapiens, PPC-1, 96 h, SRB assay, 4 days treatment
Procedure: as §1, §2, §3, §4

DU 145 cells = experiment: Cell growth inhibition (sulforhodamine B assay), DU145; format: cell-based; conditions: Homo sapiens, DU-145, 96 h, SRB assay, 4 days treatment
Procedure: as §1, §2, §3, §4

## C[C@](O)(COc1ccc(NC(=O)CBr)cc1)C(=O)Nc1ccc([N+](=O)[O-])c(C(F)(F)F)c1 [Compound 1]
LNCaP cells [1]
  Apoptosis, DNA fragmentation (green fluorescence): exhibit green fluorescence
LNCaP cells [2]
  Sensitivity of LNCaP cells compared with other cell lines: not more sensitive
LNCaP cells [3]; LNCaP versus PC-3, MCF-7 and CV-1 cells, 0.01-10.0 μM
  Growth inhibitory activity against various cancer cell lines: non-selective growth inhibitory activity
[4]
  IC50 values in inhibiting the growth of all five prostate cancer cell lines: low micro-molar range
[5]
  Ki: 0.0139 ± 0.0014 µM

## C[C@@](O)(CBr)C(=O)Nc1ccc([N+](=O)[O-])c(C(F)(F)F)c1 [S-NTBA]
PC-3 cells
  IC50: 3100 ± 500 nM
TSU cells
  IC50: 3500 ± 200 nM
LNCaP cells [2]; 4 days or 6 days treatment
  IC50: 1300 ± 200 nM
PPC-1 cells
  IC50: 2200 ± 200 nM
DU 145 cells
  IC50: 4700 ± 300 nM

## N[C@@H](Cc1ccc(N(CCCl)CCCl)cc1)C(=O)O [Melphalan]
PC-3 cells; Melphalan line, unit nM
  IC50: 30.4 ± 3.1 nM
TSU cells; Melphalan line, unit nM
  IC50: 4 ± 0.2 nM
LNCaP cells [2]; 4 or 6 days treatment, Melphalan line, unit nM
  IC50: 10.3 nM
PPC-1 cells; Melphalan line, unit nM
  IC50: 16.2 nM
DU 145 cells; Melphalan line, unit nM
  IC50: 31 nM

## C[C@@H]1CC2=CC(=O)CC[C@@H]2[C@H]2CC[C@@]3(C)[C@@H](CC[C@]3(C)O)[C@@H]21 [Compound 3H-MIB, 3H-mibolerone]
[5]; determined in preliminary experiments, read-out: Kd, equilibrium dissociation constant of 3H-MIB
  Kd: 0.00019 ± 1e-05 µM

## C[C@](O)(COc1ccc(NC(=O)CCl)cc1)C(=O)Nc1ccc([N+](=O)[O-])c(C(F)(F)F)c1 [Compound 2]
LNCaP cells [1]
  Apoptosis, DNA fragmentation (green fluorescence): similar
LNCaP cells [2]
  Sensitivity of LNCaP cells compared with other cell lines: not more sensitive
LNCaP cells [3]; growth curve
  Fold sensitivity of LNCaP cells over PC-3 or CV-1 cells: approximately 10 fold
[4]
  IC50 values in inhibiting the growth of all five prostate cancer cell lines: low micro-molar range
[5]
  Ki: 0.0019 ± 0.0003 µM
